According to ChEMBL document CHEMBL5050844 (2019):

Key:
[1] = Induction of anti-CD3 antibodies-stimulated human T cell activation at 1 uM assessed fold increase in CD25 expression measured by ELISA assay; type: functional, T cell line; note: reference of the scale not given here
[2] = Induction of anti-CD3/CD28 antibodies-stimulated human CD4+ T cell activation at 10 uM assessed fold increase in CD69 expression measured by flow cytometry analysis; type: functional, T cell line
[3] = Induction of activation of human CD56+ CD3- NK cells co-cultured with human K562 cells in 1:1 ratio and assessed as increase in TNF-alpha secretion at 10 uM measured by ELISA assay; type: functional, Natural killer cell
[4] = Induction of anti-CD3 antibodies-stimulated human T cell activation at 1.11 uM assessed fold increase in GM-CSF secretion measured by ELISA assay; type: functional, T cell line; note: reference of the scale not given here
[5] = Induction of anti-CD3/CD28 antibodies-stimulated human CD8+ T cell activation at 1.11 uM assessed fold increase in cell proliferation measured by flow cytometry analysis; type: functional, T cell line
[6] = Induction of anti-CD3 antibodies-stimulated human T cell activation at 10 uM assessed fold increase in IFN-gamma secretion measured by ELISA assay; type: functional, T cell line; note: reference of the scale not given here
[7] = Induction of anti-CD3/CD28 antibodies-stimulated human T cell activation at 4 uM assessed fold increase in CD25 expression measured by ELISA assay; type: functional, T cell line
[8] = system: B cell; assay: Induction of anti-IgM-stimulated human CD20+ B cell activation at 10 to 1000 uM assessed as increase in CD69 expression measured as mean fluorescence intensity AUC by flow cytometry analysis; type: functional, cell-based; settings: dose 10-1000 µM
[9] = Induction of anti-CD3/CD28 antibodies-stimulated human T cell activation at 10 uM assessed fold increase in TNF-alpha secretion measured by ELISA assay; type: functional, T cell line
[10] = Induction of activation of human CD56+ CD3- NK cells co-cultured with human K562 cells in 1:1 ratio and assessed as increase in TNF-alpha secretion at 0.625 uM measured by ELISA assay; type: functional, Natural killer cell
[11] = Induction of anti-CD3 antibodies-stimulated human exhausted CD4+ T cell activation assessed fold increase in CTLA4 expression measured by flow cytometry analysis; type: functional, T cell line; note: reference of the scale not given here
[12] = Induction of anti-CD3 antibodies-stimulated human T cell activation at 10 uM assessed fold increase in GM-CSF secretion measured by ELISA assay; type: functional, T cell line; note: reference of the scale not given here
[13] = Induction of anti-CD3/CD28 antibodies-stimulated human CD8+ T cell activation at 10 uM assessed fold increase in cell proliferation measured by flow cytometry analysis; type: functional, T cell line
[14] = Induction of anti-CD3/CD28 antibodies-stimulated human T cell activation at 0.3 uM assessed fold increase in CD25 expression measured by ELISA assay; type: functional, T cell line
[15] = Induction of anti-CD3 antibodies-stimulated human exhausted T cell activation assessed fold increase in GM-CSF secretion measured by ELISA assay; type: functional, T cell line; note: reference of the scale not given here
[16] = Induction of anti-CD3/CD28 antibodies-stimulated human T cell activation at 1.11 uM assessed fold increase in GM-CSF secretion measured by ELISA assay; type: functional, T cell line
[17] = Induction of anti-CD3/CD28 antibodies-stimulated human anergic T cell activation at 10 uM assessed fold increase in IFN-gamma secretion measured by ELISA assay; type: functional, T cell line
[18] = Induction of anti-CD3 antibodies-stimulated human CD8+ T cell activation at 10 uM assessed fold increase in CD69 expression measured by flow cytometry analysis; type: functional, T cell line; note: reference of the scale not given here
[19] = Induction of allogenic human T cell activation at 10 uM assessed fold increase in cell proliferation; type: functional, T cell line
[20] = Induction of activation of human CD56+ CD3- NK cells co-cultured with human K562 cells in 1:1 ratio and assessed as increase in IFN-gamma secretion at 10 uM measured by ELISA assay; type: functional, Natural killer cell
[21] = Induction of anti-CD3/CD28 antibodies-stimulated human CD4+ T cell activation at 1.11 uM assessed fold increase in CD69 expression measured by flow cytometry analysis; type: functional, T cell line
[22] = Induction of anti-CD3 antibodies-stimulated human CD4+ T cell activation at 1.11 uM assessed fold increase in CD69 expression measured by flow cytometry analysis; type: functional, T cell line; note: reference of the scale not given here
[23] = Induction of anti-CD3 antibodies-stimulated human T cell activation at 10 uM assessed fold increase in TNF-alpha secretion measured by ELISA assay; type: functional, T cell line; note: reference of the scale not given here
[24] = Induction of anti-CD3 antibodies-stimulated human T cell activation at 8 uM assessed fold increase in CD25 expression measured by ELISA assay; type: functional, T cell line; note: reference of the scale not given here
[25] = Induction of anti-CD3 antibodies-stimulated human exhausted T cell activation assessed fold increase in IL-2 secretion measured by ELISA assay; type: functional, T cell line; note: reference of the scale not given here
[26] = Induction of anti-CD3 antibodies-stimulated human exhausted CD8+ T cell activation assessed fold increase in CTLA4 expression measured by flow cytometry analysis; type: functional, T cell line; note: reference of the scale not given here
[27] = Induction of anti-CD3/CD28 antibodies-stimulated human CD8+ T cell activation at 1.11 uM assessed fold increase in CD69 expression measured by flow cytometry analysis; type: functional, T cell line
[28] = Induction of anti-CD3 antibodies-stimulated human T cell activation at 1 uM assessed fold increase in IL-2 secretion measured by ELISA assay; type: functional, T cell line; note: reference of the scale not given here
[29] = Induction of anti-CD3 antibodies-stimulated human CD4+ T cell activation at 10 uM assessed fold increase in CD69 expression measured by flow cytometry analysis; type: functional, T cell line; note: reference of the scale not given here
[30] = Induction of activation of human CD56+ CD3- NK cells co-cultured with human K562 cells in 1:1 ratio and assessed as increase in IFN-gamma secretion at 2.5 uM measured by ELISA assay; type: functional, Natural killer cell
[31] = Induction of activation of human CD56+ CD3- NK cells co-cultured with human K562 cells in 1:1 ratio and assessed as increase in IFN-gamma secretion at 0.625 uM measured by ELISA assay; type: functional, Natural killer cell
[32] = Induction of anti-CD3/CD28 antibodies-stimulated human T cell activation at 1.11 uM assessed fold increase in IFN-gamma secretion measured by ELISA assay; type: functional, T cell line
[33] = Induction of anti-CD3/CD28 antibodies-stimulated human anergic T cell activation at 0.37 uM assessed fold increase in IFN-gamma secretion measured by ELISA assay; type: functional, T cell line
[34] = Induction of anti-CD3 antibodies-stimulated human T cell activation at 8 uM assessed fold increase in IL-2 secretion measured by ELISA assay; type: functional, T cell line; note: reference of the scale not given here
[35] = Induction of anti-CD3/CD28 antibodies-stimulated human T cell activation at 1 uM assessed fold increase in IL-2 secretion measured by ELISA assay; type: functional, T cell line
[36] = Induction of anti-CD3/CD28 antibodies-stimulated human T cell activation at 0.3 uM assessed fold increase in IL-2 secretion measured by ELISA assay; type: functional, T cell line
[37] = Induction of anti-CD3 antibodies-stimulated human CD8+ T cell activation at 1.11 uM assessed fold increase in cell proliferation measured by flow cytometry analysis; type: functional, T cell line; note: reference of the scale not given here
[38] = Induction of anti-CD3/CD28 antibodies-stimulated human T cell activation at 1 uM assessed fold increase in CD25 expression measured by ELISA assay; type: functional, T cell line

Row | Structure (SMILES) | fold change (FC) [1] | fold change (FC) [2] | fold change (FC) [3] | fold change (FC) [4] | fold change (FC) [5] | fold change (FC) [6] | fold change (FC) [7] | AUC [8] | fold change (FC) [9] | fold change (FC) [10] | fold change (FC) [11] | fold change (FC) [12] | fold change (FC) [13] | fold change (FC) [14] | fold change (FC) [15] | fold change (FC) [16] | fold change (FC) [17] | fold change (FC) [18] | fold change (FC) [19] | fold change (FC) [20] | other results
1 | Cn1cnnc1CC1(c2cccc(N3Cc4c(cc(CN5CC(F)C5)cc4C(F)(F)F)C3=O)c2)COC1 | >=1.001 | 1.401 | 2.01 | 2.01 | 3.01 | >4 | 1.51 | 1.01 | 2.01 | 1.01 | >1.61 | >4 | >4 | 1.31 | >1.61 | 2.01 | >4.01 | 1.401 | >3 | >=5 | fold change (FC) [21]: 1.201; fold change (FC) [22]: >1.601; fold change (FC) [23]: 1.51; fold change (FC) [24]: >=1.001; fold change (FC) [25]: <=2.5; fold change (FC) [26]: >1.61; fold change (FC) [27]: 1.201; fold change (FC) [28]: 0.151; fold change (FC) [29]: >1.601; fold change (FC) [30]: 2.01; fold change (FC) [31]: 2.01; fold change (FC) [32]: 3.01; fold change (FC) [33]: 2.51; fold change (FC) [34]: >=0.201; fold change (FC) [35]: >=7.5; fold change (FC) [36]: 5; fold change (FC) [37]: >4; fold change (FC) [38]: 1.31
2 | Cc1cc(C(=O)Nc2cccc(C3(Cc4nncn4C)COC3)c2)nc(C2CC2)n1 | >=1.001 | 1.401 | >=5 | 2.01 | 3.01 | >4 | 1.51 | > 1.51 | 2.01 | 1.01 | <=1.4 | 2.01 | >4 | 1.31 | >1.61 | 2.01 | >4.01 | 1.401 | >3 | >=5 | fold change (FC) [21]: 1.401; fold change (FC) [22]: 1.401; fold change (FC) [23]: 1.51; fold change (FC) [24]: >=1.001; fold change (FC) [25]: >3.01; fold change (FC) [26]: <=1.4; fold change (FC) [27]: 1.201; fold change (FC) [28]: >=0.201; fold change (FC) [29]: >1.601; fold change (FC) [30]: 2.01; fold change (FC) [31]: 2.01; fold change (FC) [32]: 2.01; fold change (FC) [33]: 2.51; fold change (FC) [34]: >=0.201; fold change (FC) [35]: >=7.5; fold change (FC) [36]: 5; fold change (FC) [37]: >4; fold change (FC) [38]: >=1.76
3 | Cn1cnnc1C(F)(F)[C@](C)(F)c1cccc(N2Cc3c(cc(C(=O)N4CC[C@H](O)C4)cc3C(F)(F)F)C2=O)c1 | 0.801 | 1.401 | 1.01 | <=1.5 | <=2 | 2.01 | 1.31 | < 0.5 | 2.01 | 1.01 | <=1.4 | 2.01 | 3.01 | 1.01 | <=1.4 | 1.51 | >4.01 | 1.201 | <=2 | <=1 | fold change (FC) [21]: 1.201; fold change (FC) [22]: 1.201; fold change (FC) [23]: 1.51; fold change (FC) [24]: >=1.001; fold change (FC) [25]: 2.51; fold change (FC) [26]: <=1.4; fold change (FC) [27]: <=1.2; fold change (FC) [28]: 0.101; fold change (FC) [29]: >1.601; fold change (FC) [30]: 1.01; fold change (FC) [31]: 1.01; fold change (FC) [32]: <=2; fold change (FC) [33]: <=2.5; fold change (FC) [34]: >=0.201; fold change (FC) [35]: 2.51; fold change (FC) [36]: 1.01; fold change (FC) [37]: <=2; fold change (FC) [38]: 1.01
